The results in this text go back to US8673908B2, “Kynurenine production inhibitor” (Kyowa Hakko Kirin Co., Ltd., priority 2008, dated 2014).

In the experiment the test system is kynurenine production in IFN-γ-treated KATO-III cells. The experiment is described as follows: Inhibitory activity on kynurenine production (Test Example 1). It counts as cell-based. The note with it: Homo sapiens, IFN-γ treatment, culture for 96 hours, read-out: IC50 value, inhibition of kynurenine production. A digest of the protocol:
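Read-out is absorbance at 480 nm of medium treated with trichloroacetic acid, then p-dimethylaminobenzaldehyde, to quantify kynurenine. DMSO-only wells with and without IFN-γ serve as references. Cells were KATO-III, 2,000 per well, 96 h at 37 °C/5% CO2 with compound (DMSO ≤0.1%) and IFN-γ at 31.25 ng/mL in the added suspension.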
What is called IC50 is the concentration that gives 50% inhibition. As to `CN(C)C(=O)c1ccc(C(Oc2nc3ccccc3nc2NS(=O)(=O)c2ccccc2Cl)C(F)(F)F)cc1` (stereo not shown) [Compound 63, 2-chloro-N-{3-[2,2,2-trifluoro-1-(4-dimethylcarbamoyl-phenyl)ethoxy]quinoxalin-2-yl}benzenesulfonamide], the IC50 was less than 1 µM. With `CCS(=O)(=O)Nc1nc2ccccc2nc1OC(c1cccnc1)C(F)(F)F` (stereo not shown) [Compound 190, N-{3-[2,2,2-trifluoro-1-(pyridin-3-yl)ethoxy]quinoxalin-2-yl}ethanesulfonamide], the IC50 is less than 1 µM.

With `CCCS(=O)(=O)Nc1nc2ccccc2nc1OC(C1CCN(C(C)=O)CC1)C(F)(F)F` (stereo not shown) [Compound 330, N-{3-[2,2,2-trifluoro-1-(1-acetylpiperidin-4-yl)ethoxy]-quinoxalin-2-yl}propane-1-sulfonamide], the IC50 is less than 1 µM.

Take `O=S(=O)(Nc1nc2ccccc2nc1OC(c1cccnc1)C(F)(F)F)c1ccccc1F` (stereo not shown) [Compound 144, 2-fluoro-N-{3-[2,2,2-trifluoro-1-(pyridin-3-yl)ethoxy]-quinoxalin-2-yl}benzenesulfonamide]: the half-maximal inhibitory concentration (IC50) is less than 1 µM.

For the compound `O=S(=O)(Nc1nc2ccccc2nc1OC(C1CCCCC1)C(F)(F)F)c1ccccc1Cl` (stereo not shown) [Compound 118, 2-chloro-N-[3-(1-cyclohexyl-2,2,2-trifluoroethoxy)-quinoxalin-2-yl]benzenesulfonamide], the IC50 is less than 1 µM.

Consider `O=S(=O)(Nc1nc2ccccc2nc1OC(c1cccnc1)C1(F)CCOCC1)c1ccccc1Cl` (stereo not shown) [Compound 78, 2-chloro-N-{3-[4-fluorotetrahydropyran-4-yl(pyridin-3-yl)-methoxy]quinoxalin-2-yl}benzenesulfonamide], for which the 50% inhibitory concentration (IC50) is less than 1 µM.

As to `CC(C)(Oc1nc2ccccc2nc1NS(=O)(=O)c1ccccc1Cl)c1cccnc1` [Compound 91, 2-chloro-N-{3-[1-methyl-1-(pyridin-3-yl)ethoxy]quinoxalin-2-yl}benzenesulfonamide], the IC50 lay in the range of 1 to 10 µM.

Turning to `O=S(=O)(Nc1nc2ccccc2nc1OC(C1CCSCC1)C(F)(F)F)c1ccccc1Cl` (stereo not shown) [Compound 267, 2-chloro-N-{3-[2,2,2-trifluoro-1-(tetrahydro-2H-thiopyran-4-yl)ethoxy]quinoxalin-2-yl}benzenesulfonamide], the IC50 is less than 1 µM. Regarding `O=S(=O)(Nc1nc2ccccc2nc1OC(c1cccc(Cl)c1)C(F)(F)F)c1ccccc1Cl` (stereo not shown) [Compound 84, 2-chloro-N-{3-[2,2,2-trifluoro-1-(3-chlorophenyl)ethoxy]-quinoxalin-2-yl}benzenesulfonamide], the IC50 is less than 1 µM.

On to `Cc1ccc(C(Oc2nc3ccccc3nc2NS(=O)(=O)c2ccccc2Cl)C(F)(F)F)cn1` (stereo not shown) [Compound 41, 2-chloro-N-{3-[2,2,2-trifluoro-1-(6-methylpyridin-3-yl)-ethoxy]quinoxalin-2-yl}benzenesulfonamide], for which the IC50 was less than 1 µM. Regarding `O=S(=O)(Nc1nc2ccccc2nc1OC(c1cnc(Cl)s1)C(F)(F)F)c1ccccc1Cl` (stereo not shown) [Compound 110, 2-chloro-N-{3-[2,2,2-trifluoro-1-(2-chlorothiazol-5-yl)-ethoxy]quinoxalin-2-yl}benzenesulfonamide], the IC50 was less than 1 µM. As for `O=S(=O)(Nc1nc2ccccc2nc1OC(c1cncn1CC1CC1)C(F)(F)F)c1ccccc1Cl` (stereo not shown) [Compound 111, 2-chloro-N-{3-[2,2,2-trifluoro-1-(1-cyclopropylmethyl-1H-imidazol-5-yl)ethoxy]quinoxalin-2-yl}benzenesulfonamide], the IC50 was less than 1 µM. Next, `O=S(=O)(Nc1nc2ccccc2nc1OC(c1cccnc1)C(F)(F)F)c1ccc(Cl)cc1` (stereo not shown) [Compound 182, 4-chloro-N-{3-[2,2,2-trifluoro-1-(pyridin-3-yl)ethoxy]-quinoxalin-2-yl}benzenesulfonamide]: less than 1 µM; `O=S(=O)(Nc1nc2ccccc2nc1OC(c1ccco1)C(F)(F)F)c1ccccc1Cl` (stereo not shown) [Compound 109, 2-chloro-N-{3-[2,2,2-trifluoro-1-(furan-2-yl)ethoxy]-quinoxalin-2-yl}benzenesulfonamide]: less than 1 µM; `O=S(=O)(Nc1nc2ccccc2nc1OCc1ccc2ccccc2c1)c1cc(Cl)cc(Cl)c1` [Compound 15, 3,5-dichloro-N-{3-[(2-naphthyl)methoxy]quinoxalin-2-yl}-benzenesulfonamide]: less than 1 µM.

Consider `CCOCC(C)Oc1nc2ccccc2nc1NS(=O)(=O)c1ccccc1Cl` (stereo not shown) [Compound 232, 2-chloro-N-[3-(1-ethoxypropan-2-yloxy)quinoxalin-2-yl]-benzenesulfonamide], for which the half-maximal inhibitory concentration (IC50) was in the range of 1 to 10 µM. On to `Cc1noc(C)c1S(=O)(=O)Nc1nc2ccccc2nc1OC(c1cccnc1)C1(F)CCOCC1` (stereo not shown) [Compound 88, 3,5-dimethyl-N-{3-[4-fluorotetrahydropyran-4-yl(pyridin-3-yl)methoxy]quinoxalin-2-yl}isoxazole-4-sulfonamide], for which the IC50 is less than 1 µM. For the compound `O=S(=O)(Nc1nc2ccccc2nc1OC(c1ccc(C2CC2)nc1)C(F)(F)F)c1ccccc1Cl` (stereo not shown) [Compound 89, 2-chloro-N-{3-[2,2,2-trifluoro-1-(6-cyclopropylpyridin-3-yl)ethoxy]quinoxalin-2-yl}benzenesulfonamide], the IC50 was less than 1 µM. Next, `CCCNS(=O)(=O)Nc1nc2ccccc2nc1OC(c1ccc(Cl)nc1)C(F)(F)F` (stereo not shown) [Compound 283, N-{3-[1-(6-chloropyridin-3-yl)-2,2,2-trifluoroethoxy]-quinoxalin-2-yl}-N′-propyl-sulfuric diamide]: less than 1 µM; `Cc1nn(C)c(Cl)c1S(=O)(=O)Nc1nc2ccccc2nc1OC(C1CCSCC1)C(F)(F)F` (stereo not shown) [Compound 130, 5-chloro-1,3-dimethyl-N-{3-[2,2,2-trifluoro-1-(tetrahydro-2H-thiopyran-4-yl)ethoxy]quinoxalin-2-yl}-1H-pyrazole-4-sulfonamide]: less than 1 µM; `CC(COc1nc2ccccc2nc1NS(=O)(=O)c1ccccc1Cl)Cc1cccnc1` (stereo not shown) [Compound 176, 2-chloro-N-{3-[2-methyl-3-(pyridin-3-yl)propoxy]quinoxalin-2-yl}benzenesulfonamide]: less than 1 µM. Regarding `CCCS(=O)(=O)Nc1nc2ccccc2nc1OC(C1CCOCC1)C(F)(F)F` (stereo not shown) [Compound 215, N-{3-[2,2,2-trifluoro-1-(tetrahydro-2H-pyran-4-yl)ethoxy]-quinoxalin-2-yl}propane-1-sulfonamide], the IC50 was less than 1 µM. Regarding `O=Cc1ccc(C(Oc2nc3ccccc3nc2NS(=O)(=O)c2ccccc2Cl)C(F)(F)F)cc1` (stereo not shown) [Compound 58, 2-chloro-N-{3-[2,2,2-trifluoro-1-(4-formylphenyl)ethoxy]-quinoxalin-2-yl}benzenesulfonamide], the IC50 was less than 1 µM. As for `Cc1noc(C)c1S(=O)(=O)Nc1nc2ccccc2nc1OC(c1cc2ccccc2n1C)C(F)(F)F` (stereo not shown) [Compound 128, 3,5-dimethyl-N-{3-[2,2,2-trifluoro-1-(1-methyl-1H-indol-2-yl)ethoxy]quinoxalin-2-yl}isoxazole-4-sulfonamide], the IC50 was less than 1 µM.

Take `CCCNS(=O)(=O)Nc1nc2ccccc2nc1OC(C1CCN(C)CC1)C(F)(F)F` (stereo not shown) [Compound 328, N-propyl-N′-{3-[2,2,2-trifluoro-1-(1-methylpiperidin-4-yl)ethoxy]quinoxalin-2-yl}sulfuric diamide]: the 50% inhibitory concentration (IC50) fell in the range of 1 to 10 µM. For `Cc1nn(C)c(Cl)c1S(=O)(=O)Nc1nc2ccccc2nc1OC(c1ccccc1)C(F)(F)F` (stereo not shown) [Compound 184, 5-chloro-1,3-dimethyl-N-[3-(2,2,2-trifluoro-1-phenyl-ethoxy)quinoxalin-2-yl]-1H-pyrazole-4-sulfonamide], the IC50 was less than 1 µM.

Regarding `CCCS(=O)(=O)Nc1nc2ccccc2nc1OC(C1CCN(C(=O)C2CC2)CC1)C(F)(F)F` (stereo not shown) [Compound 341, N-{3-[2,2,2-trifluoro-1-(1-cyclopropanecarbonylpiperidin-4-yl)ethoxy]quinoxalin-2-yl}propane-1-sulfonamide], the IC50 was less than 1 µM.

Regarding `CCCNS(=O)(=O)Nc1nc2ccccc2nc1OC(c1cccc(C#N)c1)C(F)(F)F` (stereo not shown) [Compound 291, N-{3-[1-(3-cyanophenyl)-2,2,2-trifluoroethoxy]quinoxalin-2-yl}-N′-propyl-sulfuric diamide], the IC50 was less than 1 µM. Consider `CC(C)S(=O)(=O)Nc1nc2ccccc2nc1OC(c1cccnc1)C(F)(F)F` (stereo not shown) [Compound 168, N-{3-[2,2,2-trifluoro-1-(pyridin-3-yl)ethoxy]quinoxalin-2-yl}propane-2-sulfonamide], for which the IC50 is less than 1 µM. Next, `CN(C)Cc1ccc(C(Oc2nc3ccccc3nc2NS(=O)(=O)c2ccccc2Cl)C(F)(F)F)cc1` (stereo not shown) [Compound 62, 2-chloro-N-{3-[2,2,2-trifluoro-1-(4-dimethylaminomethyl-phenyl)ethoxy]quinoxalin-2-yl}benzenesulfonamide]: less than 1 µM.

In the case of `CCOCCNS(=O)(=O)Nc1nc2ccccc2nc1OC(c1cccnc1)C(F)(F)F` (stereo not shown) [Compound 207, N-{3-[2,2,2-trifluoro-1-(pyridin-3-yl)ethoxy]quinoxalin-2-yl}-N′-(2-ethoxyethyl)-sulfuric diamide], the IC50 was less than 1 µM. In the case of `CCC(=O)C(CC)Oc1nc2ccccc2nc1NS(=O)(=O)c1ccccc1Cl` (stereo not shown) [Compound 237, 2-chloro-N-[3-(4-oxohexan-3-yloxy)quinoxalin-2-yl]benzenesulfonamide], the IC50 is less than 1 µM. For `Cc1nn(C)c(Cl)c1S(=O)(=O)Nc1nc2ccccc2nc1OC(c1cc2ccccc2n1C)C(F)(F)F` (stereo not shown) [Compound 129, 5-chloro-1,3-dimethyl-N-{3-[2,2,2-trifluoro-1-(1-methyl-1H-indol-2-yl)ethoxy]quinoxalin-2-yl}-1H-pyrazole-4-sulfonamide], the IC50 was less than 1 µM.

Turning to `O=S(=O)(Nc1nc2ccccc2nc1OCc1ccccc1)c1cccc(Cl)c1Cl` [Compound 32, 2,3-dichloro-N-(3-benzyloxyquinoxalin-2-yl)benzenesulfonamide], the 50% inhibitory concentration (IC50) is 1 to 10 µM.
